Source: patent US10076511B2, “Bisamide derivative of dicarboxylic acid as an agent for stimulating tissue regeneration and recovery of diminished tissue function” (TREAMID GmbH, priority 2015, dated 2018)
Marks after values point to notes of the source that are not given here.

Assays:
Format in all cases: in vivo, rat
male Wistar rats [1] = test: Metabolic syndrome model in rats (cafeteria diet)
Description: Metabolic syndrome was simulated in male Wistar rats (260-280 g) by keeping animals on a high-fat diet (“cafeteria diet”) for 12 weeks. The “cafeteria diet” was balanced according to Current Protocols in Pharmacology [Current Protocols in Pharmacology (2005) Animal Models of Disease//Contributed by Petter Hedlund, Kenshi Matsumoto, and Karl-Erik Andersson]. The diet contained 25-35% of fats and 25-30% of digestible carbohydrates in addition to the standard diet of rodents. Treamid was administered at a dose of 0.5 mg/kg intragastrically once daily, every day from Week 7 to Week 11 of the diet. Reference drug Metformin was administered at a dose of 200 mg/kg intragastrically according to the same regimen.
The development of pathology and a therapeutic effect of Treamid were estimated by the following parameters: blood biochemical parameters (glucose, cholesterol, triglycerides (TG), HDL, LDL, atherogenicity index), glucose tolerance test, visceral fat weight, total number and percentage of motile sperm forms.
Glucose was determined with an OneNouch Select glucometer (Switzerland).
The levels of triglycerides, TCh and HDL were determined by using a diagnostic kit (Olvex Diagnosticum, Russia).
The level of LDL was determined by the formula 2. LDL=TCh−(HDL+TG/2.2) (1),
The atherogenicity index (AI) was calculated by the formula 3. AI=(TCh−HDL)/HDL (2),
The atherogenicity index was calculated for each animal individually, and then the arithmetic mean value of the group was calculated.
For the analysis of sperm, the animals were anesthetized with intraperitoneal injection of a mixture of Zolletil and Xyla (0.2 ml of Zoletil+0.8 ml Xyla) in a volume of 70 μl/100 g of weight. Epididymis was isolated. The epididymis head was cut off from the tail, weighed, 5 incisions were made (to improve the sperm yield), and placed in a tube containing 10 ml of phosphate buffered saline heated to 37° C. The tube was held at 37° C. for 10 minutes. Then, the tube was shaken on a shaker, 20 μl of the liquid was taken, applied to a glass slide heated to 37° C., and the number of motile sperm cells was assessed under a microscope. The calculation was performed up to 100 sperm cells.
The total number of sperm cells in a test tube with epididymis was calculated as follows: 20 μl of the liquid was taken after shaking and added to a tube containing 400 μl of physiological saline. After shaking the tubes, their contents (20 μl) were taken out and introduced into Goryaev chamber. The number of sperm cells was counted in 100 large squares. The number of sperm cells in the head of epididymis was calculated by the formula: Number of sperm cells=number of sperm cells in 100 large squares of Goryaev chamber*0.525(factor from the calculation of the dilution and the volume of Goryaev chamber)/weight of the epididymis head.

male rats = conditions: rat, in vivo
Protocol: The latter was simulated by a single injection of cytostatic drug Paclitaxel (Mitotax, Dr. Reddy's, India) to male rats (3 months of age). The choice of the drug was due to the fact that it is one of the medications that damage the precursors of spermatogenesis—stem cells.
Paclitaxel was administered to the animals of the control and test groups once intravenously at the maximum tolerated dose of 7.6 mg/kg. Treamid was administered to the animals of the experimental groups intragastrically at a dose of 5 mg/kg in the form of a suspension in 2% starch mucus for 15 days a month after the administration of Paclitaxel. The control animals received an equivalent volume of the solvent (2% starch mucus), instead of the test compound.
The colony-stimulating activity of the cells of the microenvironment of spermatogenic tissue (production of humoral regulators of spermatogenesis by Sertoli cells) was determined as follows. The above-described procedure was used to prepare a testis homogenate from which an adherent fraction of cells was isolated. The adherent cells were cultured for 24 hours in complete culture medium at 37° C., 5% CO2 and 100% air humidity. A day later, the supernatant was collected, which was stored at a temperature of […]. The level of humoral factors of spermatogenesis in the supernatant was tested by the test system of CFU-Sp of the testes of intact rats. […]

male Wistar rats [2] = test: Sexual incentive motivation test, rats of late reproductive age; conditions: 14-month rats
Protocol: (§1) Erectile dysfunction was simulated by using animals of late and senile reproductive age (14-19 months). Suppression of sexual motivation was simulated by using animals of late reproductive age (14 months).
Experiments on studying the effect of Treamid on sexual motivation were carried out on 40 male Wistar rats (14 months of age). A model for a targeted search for novel agents for the therapy of this pathology was used as an experimental model of sexual incentive motivation in rats [Xi Chu, Ekaterina S. Zhavbert, Julia L. Dugina, Irina A. Kheyfets, Svetlana A. Sergeeva, Oleg I. Epstein, Anders Agmo Sindenafil and a compound stimulating endothelial NO synthase modity sexual incentive motivation and copulatory behavior in male wistar and fisher 344//J Sex Med.—2008.—5.—P. 2085-2009]. This model is based on the fact that rats are social animals and seek not only sexual, but also social contacts. The assessment of sexual motivation involves determining the time spent near a sexual stimulus and the score of preference in animals without direct contact with “social” and “sexual” stimuli. The sexual stimulus was a female rat in estrus stage, and the social stimulus was a male rat.

male Wistar rats [3] = test: Pair-test of sexual behavior, seasonal suppression of copulatory activity
Protocol: Seasonal suppression of reproductive activity was simulated by carrying out the experiment in the winter period (end of December). As a background group, intact animals (3 months of age) were tested in June.
The experiments were carried out on 27 male Wistar rats of reproductive age (3 months). Treamid at a dose of 5 mg/kg and reference drug Sildenafil (at a dose of 3 mg/kg) were administered intragastrically […], once daily for 15 days. The sexual activity was estimated by the pair-test of sexual behavior. The test was carried out twice: before administration and one hour after the last administration of Treamid. The rats of the control groups receiving the solvent were tested at the same time as the animals of the experimental groups.
The experiment also comprised the use of female rats in the estrus stage caused by a preliminary 4-fold injection of the Synestrel. The effectiveness of Treamid was estimated by the following indices: latency until the first mating attempt (LFM), the number of mating attempts (MN), and the number of ejaculations (EN). The obtained data were compared with those of the same animals before the administration of the tested compound and with the data of the control group (the second test).

Wistar rats = test: Pair-test of sexual behavior, rats of late reproductive (14 months) and presenile (19 months) age; conditions: 14-month rats
Protocol: as §1
Experiments on studying the effect of Treamid on copulatory activity were carried out on 76 Wistar rats (14 months and 19 months of age). Treamid was administered intragastrically for 14 days at a dose of 5 mg/kg. Reference drug Sildenafil (100 mg, PFIZER PGM, France) was also administered intragastrically, which corresponded to clinical use, at a dose of 3 mg/kg twice a week. The sexual activity was estimated by the pair-test of sexual behavior. For this purpose female rats in the estrus stage caused by a preliminary 4-fold injection of the Synestrel were involved in the experiment. The effectiveness of Treamid was estimated by the following indices: latency until the first mating attempt (LFM), the number of mating attempts (MN), and the number of ejaculations (EN). The obtained data were compared with those of the same animals before the administration of Treamid (the first test) and with the data in the control group (the second test).

[4] = Treamid 0.5 mg/kg, Metformin 200 mg/kg intragastrically Week 7-11 of high-fat diet
[5] = high-fat diet for 12 weeks, Treamid 0.5 mg/kg, Metformin 200 mg/kg
[6] = high-fat diet, Treamid 0.5 mg/kg, Metformin 200 mg/kg
[7] = Second test, after administration of the test compound, Treamid 5 mg/kg, Sildenafil 3 mg/kg, 14 days
[8] = first test, before administration
[9] = first test, before administration, winter period
[10] = second test, one hour after last administration, Treamid 5.0 mg/kg, Sildenafil 3 mg/kg intragastrically, 15 days
[11] = First test, before administration of drugs
[12] = Second test, after 14-day administration course, Treamid 5 mg/kg, Sildenafil 3 mg/kg

CN(C)C(=N)N=C(N)N [Metformin, reference compound]
Glucose level in the blood of male rats, mmol/L (male Wistar rats [1]; 3 weeks after the drug administration, Treamid 0.5 mg/kg, Metformin 200 mg/kg): 6.9 ± 0.3*& mmol/L
Glucose level in the blood of male rats, mmol/L (male Wistar rats [1]; 5 weeks after the drug administration, Treamid 0.5 mg/kg, Metformin 200 mg/kg): 8.0 ± 0.2*& mmol/L
Relative weight of visceral fat, Fat near the intestine (male Wistar rats [1]; [4]): 1.07 ± 0.08 % based on body weight
Relative weight of visceral fat, Fat near the kidneys (male Wistar rats [1]; [4]): 0.52 ± 0.05& % based on body weight
Relative weight of visceral fat, Fat near the testes (male Wistar rats [1]; [4]): 0.98 ± 0.12 % based on body weight
Relative weight of visceral fat, Total fat (male Wistar rats [1]; [4]): 2.57 % based on body weight
Glucose level in the blood of male rats (male Wistar rats [1]; before administration of drugs (Week 6 of diet)): 6.2 ± 0.1 mmol/L
Atherogenicity index (male Wistar rats [1]; [5]): 0.6 ± 0.1&
HDL, mM/l (male Wistar rats [1]; [5]): 1.8 ± 0& mM/l
LDL, mM/l (male Wistar rats [1]; [5]): 0.7 ± 0.3& mM/l
Total cholesterol, mM/l (male Wistar rats [1]; [5]): 2.8 ± 0.3 mM/l
Triglycerides, mM/l (male Wistar rats [1]; [5]): 0.7 ± 0.1& mM/l
Percentage of motile sperm forms (male Wistar rats [1]; [6]): 24.43 ± 3.99 %
Total number of sperm cells (male Wistar rats [1]; [6]): 276.6 ± 44.6&
Glucose level in the blood of male rats, mmol/L (male Wistar rats [1]; one week after the drug withdrawal, Treamid 0.5 mg/kg, Metformin 200 mg/kg): 7.8 ± 0.6& mmol/L
increase of the percentage of motile sperm forms (male Wistar rats [1]; vs. high-fat diet control): did not affect
increase of the total number of sperm cells (male Wistar rats [1]; vs. high-fat diet control): 1.8 times

CC(=O)O[C@H]1C(=O)[C@@]2(C)[C@H]([C@H](OC(=O)c3ccccc3)[C@]3(O)C[C@H](OC(=O)[C@H](O)[C@@H](NC(=O)c4ccccc4)c4ccccc4)C(C)=C1C3(C)C)[C@]1(OC(C)=O)CO[C@@H]1C[C@@H]2O [Paclitaxel, reference compound]
colony stimulating activity of conditioned media of testis cells, CFU-Sp, per 2 × 10^5 (M; SD, n = 10) (male rats): 3.0; 0.53* per 2 × 10^5

CCCc1nn(C)c2c(=O)[nH]c(-c3cc(S(=O)(=O)N4CCN(C)CC4)ccc3OCC)nc12 [Sildenafil, reference compound]
A, sec (time spent in the sexual stimulus zone) (male Wistar rats [2]; [7]): 143.18 ± 48.64 s
PS, s. u. (preference score) (male Wistar rats [2]; [7]): 0.41 ± 0.12 s. u.
effect on sexual motivation (male Wistar rats [2]; Treamid 5 mg/kg, Sildenafil 3 mg/kg): had no effect
A, sec (time spent in the sexual stimulus zone) (male Wistar rats [2]; [8]): 166.83 ± 26.27 s
B, sec (time spent in the social stimulus zone) (male Wistar rats [2]; [8]): 113.58 ± 22.60 s
PS, s. u. (preference score) (male Wistar rats [2]; [8]): 0.59 ± 0.06 s. u.
effect on sexual behavior under seasonal suppression (male Wistar rats [3]; Sildenafil 3 mg/kg): did not have a significant effect
LFM (male Wistar rats [3]; [9]): 473.00 ± 137.58 s
the number of ejaculations, % (male Wistar rats [3]; [9]): 0%
the number of mounts, abs. (male Wistar rats [3]; [9]): 3.33 ± 1.27 abs.
LFM (male Wistar rats [3]; [10]): 308.22 ± 117.73 s
the number of ejaculations, % (male Wistar rats [3]; [10]): 0%
the number of mounts, abs. (male Wistar rats [3]; [10]): 5.67 ± 1.76 abs.
EN (the number of ejaculations) (Wistar rats; [11]): 0.00 ± 0.00
LFM (latency until the first mount) (Wistar rats; [11]): 610.08 ± 88.34
MN (the number of mounts) (Wistar rats; [11]): 1.58 ± 0.56
EN (the number of ejaculations) (Wistar rats; [12]): 0.00 ± 0.00
MN (the number of mounts) (Wistar rats; [12]): 6.27 ± 1.27⋄#
LFM (latency until the first mount) (Wistar rats; Second test, after 14-day administration course, Treamid 5 mg/kg, Sildenafil 3 mg/kg intragastrically): 171.09 ± 78.08⋄*
